Consider one compound from ChEMBL document CHEMBL5500352, “ML162 derivatives incorporating a naphthoquinone unit as ferroptosis/apoptosis inducers: Design, synthesis, anti-cancer activity, and drug-resistance reversal evaluation” (Eur J Med Chem, 2024).

Activity calls are given as the source filed them. The rule behind the calls is not given here.

The test system of data set [1] is AMG 510-resistant MIA PaCa-2. Description: Cytotoxicity against human AAMG 510-resistant MIA PaCa-2 cells upto 5 uM. The format is functional, cell-based.
A short description of data set [2]: Toxicity in BALB/c nude mouse xenografted with human HT-1080 cells assessed as necrosis at 20 to 40 mg/kg, ip administered once daily for 19 days and measured every 2 days by H and E staining based assay. The format is organism-based. The note with it: in vivo, 456 h, dose 20-40 mg/kg, time 19 day. A general note: Xenograft models place foreign cells or tissue in a host animal.

Data set [3] can be described thus: Toxicity in BALB/c nude mouse xenografted with human HT-1080 cells assessed as change in heart morphology at 20 to 40 mg/kg, ip administered once daily for 19 days and measured every 2 days by H and E staining based assay. The format is organism-based. The note with it: in vivo, 456 h, dose 20-40 mg/kg, time 19 day.
In data set [4] the test system is HT-1080. Description: Induction of apoptosis in human HT-1080 cells assessed as late apoptotic cells at 4 uM incubated for 24 hrs by Annexin-V FITC/PI staining based flow cytometry analysis (reference value: 1.66%). The data set is classed as functional. (In flow cytometry, cells or beads pass a laser one at a time.)
Data set [5] concerns the target T1, Phospholipid hydroperoxide glutathione peroxidase GPX4 (Homo sapiens) (UniProt P36969).
T1 sequence (whole entry): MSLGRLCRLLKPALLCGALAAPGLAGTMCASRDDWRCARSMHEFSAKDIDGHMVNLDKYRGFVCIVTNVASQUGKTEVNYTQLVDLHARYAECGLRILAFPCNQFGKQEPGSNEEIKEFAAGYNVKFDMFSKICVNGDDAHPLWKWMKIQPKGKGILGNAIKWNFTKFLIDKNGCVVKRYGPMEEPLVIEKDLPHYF
Description: Induction of GPX4 degradation in human HT-1080 cells after 24 hrs by Western blotting assay. The format is cell-based. The note with it: dose 1-4 µM.

The subject of data set [6] is HT-1080. As to the kind of experiment: Induction of apoptosis in human HT-1080 cells assessed as necrotic cells at 1 uM incubated for 24 hrs by Annexin-V FITC/PI staining based flow cytometry analysis (reference value: 3.98%). The data set is classed as functional.
The target in data set [7] is T1, Phospholipid hydroperoxide glutathione peroxidase GPX4 (Homo sapiens). Description: Induction of GPX4 degradation in human HT-1080 cells at 2 to 4 uM after 24 hrs in presence of MG132 by Western blotting assay. To be noted: dose 2-4 µM. The format is cell-based. In general terms: In western blotting, separated proteins are transferred to a membrane and probed.
Data set [8] deals with HT-1080. As to the kind of experiment: Antitumor activity against human HT-1080 cells xenografted in ip dosed BALB/c nude mouse assessed as reduction in Bcl-2 level administered once daily for 19 days and measured every 2 days by immunohistochemistry assay. The data set is classed as functional, organism-based. To be noted: dose 20-40 mg/kg, time 19.0 day.
Data set [9] has as its system HT-1080. Description: Inhibition of cell migration in human HT-1080 cells incubated for 24 to 48 hrs by inverted microscope based wound healing assay. The format is functional. To be noted: dose 1-2 µM, time 24-48 hrs.
Data set [10] addresses T1, Phospholipid hydroperoxide glutathione peroxidase GPX4 (Homo sapiens). Description: Induction of GPX4 degradation in human HT-1080 cells at 2 uM after 24 hrs by Western blotting assay. The format is cell-based.
The nature of data set [11]: Selectivity index, ratio of IC50 for human HPNE cells to IC50 for human HT-1080 cells.
The nature of data set [12]: Potentiation of AMG510 induced cytotoxicity in human AMG 510-resistant MIA PaCa-2 cells assessed as reduction in cell survival rate at 5 uM in presence of 10 nM AMG510 (reference value: 90%). The data set is classed as functional.
The test system of data set [13] is HT-1080. Description: Antitumor activity against human HT-1080 cells xenografted in ip dosed BALB/c nude mouse assessed as reduction in GPX4 level administered once daily for 19 days and measured every 2 days by immunohistochemistry assay. The data set is classed as functional, organism-based. The note with it: dose 20-40 mg/kg, time 19.0 day.
Data set [14] in a line: Toxicity in BALB/c nude mouse xenografted with human HT-1080 cells assessed as change in liver morphology at 20 to 40 mg/kg, ip administered once daily for 19 days and measured every 2 days by H and E staining based assay. The data set is classed as organism-based. The note with it: in vivo, 456 h, dose 20-40 mg/kg, time 19 day.
Data set [15] relates to HT-1080. Description: Induction of ferroptosis in human HT-1080 cells assessed as decrease in mitochondrial crests at 4 uM after 24 hrs by transmission electron microscope analysis. The format is functional, cell-based.
Data set [16] deals with HT-1080. As to the kind of experiment: Induction of apoptosis in human HT-1080 cells assessed as early apoptotic cells at 4 uM incubated for 24 hrs by Annexin-V FITC/PI staining based flow cytometry analysis (reference value: 1.85%). The format is functional.
In data set [17] the test system is HT-1080. As to the kind of experiment: Induction of ferroptosis in human HT-1080 cells assessed as accumulation of lipid peroxidation at 10 uM after 6 hrs by BODIPYTM 581/591C11 probe based flow cytometry assay. The format is functional, cell-based.

Take `O=C(CCCCCNC1=CC(=O)c2ccccc2C1=O)Nc1ccc(N(C(=O)CCl)C(C(=O)NCCc2ccccc2)c2cccs2)cc1` (configuration not stated): the result in [1] and in [7] was inactive. Also, the Activity entry in data set [2] is “Non-Toxic”; in data set [3] it was “Non-Toxic”; in [4], 7.99%; in [5], “Dose-Dependent Effect”; in [6], 2.32%; in [8] it was “Dose-Dependent Effect”. Besides, the Activity in [12] was around 10%; in data set [13], “Dose-Dependent Effect”; in [14] it was “Non-Toxic”; in [16] it was 9.04%. Further, the inhibition result in data set [9] is “Dose-Dependent Effect”. In addition, the result in [10], in data set [15] and in data set [17] was Active. Moreover, the “Ratio IC50” value in data set [11] amounted to 5.96.
